The term CC50 denotes the concentration at which the toxic effect on the cells reaches its halfway point. The low end stands for harm at low concentration, the high end for better tolerance by the cells. Usually melting point stands for the temperature of the solid-liquid transition. The term IC50 denotes the concentration at which inhibition is half-maximal. The low end stands for greater potency in that assay, the high end for weaker potency in that assay.

One data set in a line: in vitro. The conditions noted are these: dog, TOX MDCK CC50.
For data set [1], the system named is influenza virus A/Taiwan/1/86 (H1N1). Description: organism not typed. The data set is classed as cell-based. The conditions noted are these: MDCK, 72 h, CPE in MDCK cells, three days post-virus exposure, ATPlite.

Molecules are shown by their SMILES.

`Cn1nnc(C(=O)N[C@@H]2CCC[C@H](Nc3nc(-c4c[nH]c5c(F)cc(F)cc45)ncc3F)C2)n1` [Compound 153] gave a melting point of 230 °C. The CC50 at 3 days in “in vitro” was > 1 µM. Besides, the concentration for half-maximal inhibition (IC50) in data set [1] turned out to be 20 nM.
Turning to `Cc1cc(C(=O)N[C@@H]2CCC[C@H](Nc3nc(-c4c[nH]c5c(F)cc(Cl)cc45)ncc3F)C2)n(C)n1` [Compound 41], the melting point was 281.2 °C. In the data set “in vitro”, the midpoint of cytotoxicity, the CC50 at 3 days, lay at 6 µM. Also, it took 10 nM to reach half-maximal inhibition in data set [1] (IC50).
With `Cn1cnnc1C(=O)N[C@@H]1CCC[C@H](Nc2nc(-c3c[nH]c4c(F)cc(F)cc34)ncc2F)C1` [Compound 143], the melting point came out at 169.8 °C. For the same compound, in “in vitro”, the CC50 at 3 days came to 9.9 µM. This compound showed an IC50 in data set [1] of 39 nM.
As to `CS(=O)(=O)NCc1cc(F)c(N[C@@H]2CCC[C@H](NC(=O)N3CCCC3)C2)nc1-c1c[nH]c2c(F)cc(F)cc12` (racemic) [Compound 250, N-((cis)-3-((6-(5,7-difluoro-1H-indol-3-yl)-3-fluoro-5-(methylsulfonamidomethyl)pyridin-2-yl)amino)cyclohexyl)pyrrolidine-1-carboxamide], the melting point came out at 252.1 °C. Further, the cytotoxic concentration (CC50) at 3 days in “in vitro” was > 25 µM. In data set [1], this compound came in with an IC50 of 780 nM.
The compound `CN(C)c1ccnc(C(=O)N[C@@H]2CCC[C@H](Nc3nc(-c4c[nH]c5c(F)cc(Cl)cc45)ncc3F)C2)c1` [Compound 56] returned a melting point of 281.8 °C. In addition, the CC50 at 3 days in the data set “in vitro” was 10.7 µM. For the same compound, in data set [1], the concentration for half-maximal inhibition (IC50) was 6 nM.
On the same counts, the results for `Cn1cc(C(=O)N[C@@H]2CCC[C@H](Nc3nc(-c4c[nH]c5c(F)cc(F)cc45)ncc3F)C2)nn1` [Compound 130] are > 300 °C, 3.2 µM and 32 nM.
On the same counts, the results for `O=C(N[C@H]1CCC[C@@H](Nc2nc(-c3c[nH]c4c(F)cc(F)cc34)ncc2F)C1)c1cncs1` [Compound 84] are 295.2 °C, > 25 µM and 3 nM.
Regarding `O=C(N[C@@H]1CCC[C@H](Nc2nc(-c3c[nH]c4c(F)cc(F)cc34)ncc2F)C1)c1cscn1` [Compound 154], the melting point was determined as 266.8 °C. Half-maximal cytotoxicity in the data set “in vitro” (CC50 at 3 days) was put at 15.9 µM. This compound gave an IC50 in data set [1] of 2 nM.
On to `Cc1cc(F)c2[nH]cc(-c3nc(N[C@@H]4CCC[C@@H](NC(=O)c5ccccn5)C4)c(F)cc3C#N)c2c1` (racemic) [Compound 22, N-((cis)-3-((5-cyano-3-fluoro-6-(7-fluoro-5-methyl-1H-indol-3-yl)-pyridin-2-yl)amino)cyclohexyl)picolinamide], for which the melting point is 98 °C. The CC50 at 3 days in “in vitro” is > 25 µM. In addition, the half-maximal inhibitory concentration (IC50) in data set [1] is 12 nM.
`Cc1c[nH]c(C(=O)N[C@@H]2CCC[C@H](Nc3nc(-c4c[nH]c5c(F)cc(Cl)cc45)ncc3F)C2)n1` [Compound 71] came in with a melting point of 276.8 °C. Also, in the data set “in vitro”, the CC50 at 3 days turned out to be 3.4 µM. This compound came in with a 50% inhibitory concentration (IC50) in data set [1] of 2 nM.
On the same counts, the results for `O=C(N[C@@H]1CCC[C@H](Nc2nc(-c3c[nH]c4c(F)cc(F)cc34)ncc2F)C1)c1ncccc1O` [Compound 102] are 176 °C, 10.1 µM and 10 nM.
Compound `Cn1cnc(C(=O)N[C@@H]2CCC[C@H](Nc3nc(-c4c[nH]c5c(F)cc(F)cc45)ncc3F)C2)n1` [Compound 134] registered a melting point of 183.2 °C. The compound further gave a CC50 at 3 days in the data set “in vitro” of 10.3 µM. For the same compound, in data set [1], the half-inhibitory concentration (IC50) stood at 14 nM.
In the same order, the values of `Cn1nncc1C(=O)N[C@@H]1CCC[C@H](Nc2nc(-c3c[nH]c4c(F)cc(F)cc34)ncc2F)C1` [Compound 119] are 285 °C, > 50 µM and 5 nM.
In the same order, the values of `O=C(N[C@@H]1CCC[C@H](Nc2nc(-c3c[nH]c4c(F)cc(Cl)cc34)ncc2F)C1)c1ncn[nH]1` [Compound 69] are 293.5 °C, 8.4 µM and 2 nM.
On the same counts, the results for `Cc1cc(F)c2[nH]cc(-c3ncc(F)c(N[C@@H]4CCC[C@@H](NC(=O)c5ncoc5C)C4)n3)c2c1` (racemic) [Compound 194] are 140 °C, 11.2 µM and 17 nM.
Regarding `Cc1ncn(C)c1C(=O)N[C@@H]1CCC[C@H](Nc2nc(-c3c[nH]c4c(F)cc(Cl)cc34)ncc2F)C1` [Compound 45], the melting point is > 300 °C. Besides, the half-maximal cytotoxic concentration (CC50) at 3 days in “in vitro” is > 25 µM. In data set [1], this compound had a concentration for half-maximal inhibition (IC50) of 33 nM.
With `Cc1cc(F)c2[nH]cc(-c3ncc(F)c(N[C@@H]4CCC[C@@H](NC(=O)c5nc(C)oc5C)C4)n3)c2c1` (racemic) [Compound 199], the melting point is 170 °C. The compound further registered a CC50 at 3 days in “in vitro” of 13 µM. In data set [1], the IC50 amounted to 46 nM.
On the same counts, the results for `Cn1nncc1C(=O)N[C@@H]1CCC[C@H](Nc2nc(-c3c[nH]c4c(F)cc(Cl)cc34)ncc2F)C1` [Compound 49] are 249.6 °C, > 25 µM and 9 nM.
As for `O=C(N[C@@H]1CCC[C@H](Nc2nc(-c3c[nH]c4c(F)cc(F)cc34)ncc2F)C1)c1nccs1` [Compound 109], the melting point was found to be 277 °C. The compound further displayed a 50% cytotoxic concentration (CC50) at 3 days in “in vitro” of 6.1 µM. The compound further returned an IC50 in data set [1] of 2 nM.
On to `O=C(N[C@@H]1CCC[C@H](Nc2nc(-c3c[nH]c4c(F)cc(F)cc34)ncc2F)C1)c1c[nH]cn1` [Compound 142], for which the melting point came out at 219.9 °C. The 50% cytotoxic concentration (CC50) at 3 days in “in vitro” is 10 µM. Besides, in data set [1], half-maximal inhibition (IC50) required 2 nM.
As to `Cc1scnc1C(=O)N[C@@H]1CCC[C@H](Nc2nc(-c3c[nH]c4c(F)cc(Cl)cc34)ncc2F)C1` [Compound 47], the melting point is > 300 °C. The 50% cytotoxic concentration (CC50) at 3 days in “in vitro” was determined as 7.4 µM. Half-maximal inhibition in data set [1] (IC50) required 3 nM.
In the same order, the values of `Cc1cc(C(=O)N[C@@H]2CCC[C@H](Nc3nc(-c4c[nH]c5c(F)cc(F)cc45)ncc3F)C2)n[nH]1` [Compound 112] are 283 °C, 18 µM and 3 nM.
Compound `Cn1ncc(N)c1C(=O)N[C@@H]1CCC[C@H](Nc2nc(-c3c[nH]c4c(F)cc(Cl)cc34)ncc2F)C1` [Compound 79] gave a melting point of 166.4 °C. Also, the CC50 at 3 days in “in vitro” was > 25 µM. In data set [1], the concentration for half-maximal inhibition (IC50) turned out to be 38 nM.
On the same counts, the results for `Cn1cnc(C(=O)N[C@@H]2CCC[C@H](Nc3nc(-c4c[nH]c5c(F)cc(Cl)cc45)ncc3F)C2)n1` [Compound 70] are 291.9 °C, 9.1 µM and 4 nM.
In the same order, the values of `Cc1sc(N)nc1C(=O)N[C@@H]1CCC[C@H](Nc2nc(-c3c[nH]c4c(F)cc(F)cc34)ncc2F)C1` [Compound 150] are 248.4 °C, 4.8 µM and 3 nM.
The compound `O=C(N[C@@H]1CCC[C@H](Nc2nc(-c3c[nH]c4c(F)cc(Cl)cc34)ncc2F)C1)c1c[nH]cn1` [Compound 63] displayed a melting point of 245 °C. The same compound yielded a CC50 at 3 days in the data set “in vitro” of 8.9 µM. Also, the IC50 in data set [1] was 2 nM.
`O=C(N[C@@H]1CCC[C@H](Nc2nc(-c3c[nH]c4c(F)cc(Cl)cc34)ncc2F)C1)c1ccsc1` [Compound 37]: the melting point was > 300 °C. The compound also returned a CC50 at 3 days in “in vitro” of 2.4 µM. Further, the 50% inhibitory concentration (IC50) in data set [1] amounted to 1 nM.

The record behind these values is US10597390B2, “Indoles for use in influenza virus infection” (Janssen Sciences Ireland UC, priority 2014, dated 2020).
